Values joined by “and” are separate entries in the source; they are usually repeats but may differ in a detail not shown here. Equal values may be shown once.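 Results reflect a 48-hour exposure of cells in 96-well plates to compound at five concentrations. GI50 is the concentration that inhibits growth by half. TGI denotes the concentration required for complete inhibition of growth.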
What was measured:
Experiment in all cases: growth of human tumour cells (NCI), 48 h
KM12 colon = test system: KM12 colon
NCI-H460 lung = test system: NCI-H460 lung
MALME-3M melanoma = test system: MALME-3M melanoma
EKVX NSCLC = test system: EKVX NSCLC
HL-60(TB) leukemia = test system: HL-60(TB) leukemia
SNB-19 CNS = test system: SNB-19 CNS
M14 melanoma = test system: M14 melanoma
RPMI-8226 leukemia = test system: RPMI-8226 leukemia
A549 NSCLC = test system: A549 NSCLC
SN12C renal = test system: SN12C renal

Row | SMILES | GI50 (KM12 colon) [µM] | TGI (KM12 colon) | GI50 (NCI-H460 lung) [µM] | TGI (NCI-H460 lung) [µM] | GI50 (MALME-3M melanoma) [µM] | TGI (MALME-3M melanoma) | GI50 (EKVX NSCLC) [µM] | TGI (EKVX NSCLC) | GI50 (HL-60(TB) leukemia) [µM] | TGI (HL-60(TB) leukemia) | GI50 (SNB-19 CNS) [µM] | TGI (SNB-19 CNS) [µM] | GI50 (M14 melanoma) [µM] | TGI (M14 melanoma) | GI50 (RPMI-8226 leukemia) [µM] | TGI (RPMI-8226 leukemia) | GI50 (A549 NSCLC) [µM] | TGI (A549 NSCLC) [µM] | GI50 (SN12C renal) [µM] | TGI (SN12C renal) [µM]
1 | CNCCNc1c2c(c(NCCNC)c3c(CN(C)C)c[nH]c13)C(=O)c1ccccc1C2=O | 2.8 | 9.5 µM | 1.46 | 11.2 | 6.73 | 15.5 µM | 2.13 | 5 µM | 4.14 | > 100 µM | 12.2 | > 41.7 | 5.58 | 15.5 µM | 0.938 | 5.2 µM | 3.42 | 11.2 | 0.788 | 7.47
2 | CC(=O)OC1Oc2ccccc2-c2oc(=O)c(-c3cc(=O)oc4cc(O)ccc34)cc21 (stereo not drawn) | 19.8 | 46.4 µM | 21.5 | 73.7 | 20.9 | 59.2 µM | 17.5 | 49.3 µM | 21.8 | > 100 µM | 26.6 | > 100 | 26.7 | 83.9 µM | 13.1 | 44.1 µM | 24 | > 100 | 30.9 | > 100
3 | Cc1ccc(S(=O)(=O)NCC2CCCCC2=O)cc1 (stereo not drawn) |  | > 100 µM |  | > 100 |  | > 100 µM |  | > 100 µM |  | > 100 µM |  | > 100 |  | > 100 µM |  | > 100 µM |  | > 100 |  | > 100
4 | COc1ccc(N(C)c2ncnc3occ(C)c23)cc1 | < 0.01 |  | < 0.01 |  | 38.7 | > 100 µM | < 0.01 | > 100 µM | < 0.01 | < 0.01 µM | < 0.01 | > 100 | < 0.01 | > 100 µM | < 0.01 | < 0.01 µM | < 0.01 | > 100 | < 0.01 | > 100
5 | CCOP(=O)(Cc1ccc(CP(=O)(OCC)OCC)n1C)OCC |  | > 100 µM |  | > 100 |  | > 100 µM |  | > 100 µM |  | > 100 µM |  | > 100 |  | > 100 µM |  | > 100 µM |  | > 100 |  | > 100
6 | Cc1ccc(C(SCC(N)C(=O)O)(c2ccccc2)c2ccc(C)cc2)cc1 (stereo not drawn) | 0.219 | 12.8 µM | 0.307 | 12 | 2.57 | 22.1 µM | 0.357 | > 46.8 µM | 0.235 | 0.588 µM | 0.476 | 39.3 | 0.0316 | 0.147 µM | 0.135 | 20.6 µM | 0.466 | 45.6 | 2.33 | 23.8
7 | COc1cc(Nc2cn[nH]c2-c2ccc(Cl)cc2)cc(OC)c1OC | 2.83 | 16.4 µM | 3.7 | 19.1 | 4.51 | 45.8 µM | 5.21 | 52.7 µM | 2.6 | 28.6 µM | 6.96 | > 69.3 | 2.5 | 9.41 µM | 2.48 | 12.3 µM | 5.96 | > 100 | 8.68 | > 100
8 | COc1ncnc(C2CC2)c1-c1ncc2cnn(Cc3ccc(-c4nc(C(F)(F)F)cn4C(C)C)cc3)c2n1 | 23.4 | 81.8 µM | 18.4 | 85.4 | 17.8 | 57.3 µM | 19 | 95.3 µM | 31 | > 100 µM | 22 | 69.5 | 28.1 | > 100 µM | 10.9 | 42.2 µM | 19.3 | > 100 | 18.6 | > 100
9 | CC1=Nc2ccccc2C1C(Cc1ccccc1N)c1c(C)[nH]c2ccccc12 (stereo not drawn) |  | 31.7 µM |  | 35.2 |  | 31 µM |  | 37.7 µM |  | 35.7 µM |  | 41.6 |  | 28.3 µM |  | 52.4 µM |  | 32.8 |  | 33.6
10 | O=[N+]([O-])c1nccn1CC(O)c1ccc(F)cc1 (stereo not drawn) |  | > 100 µM |  | > 100 |  | > 100 µM |  | > 100 µM |  | > 100 µM |  | > 100 |  | > 100 µM |  | > 100 µM |  | > 100 |  | > 100
11 | O=C(O)CNc1cc(-c2ccccc2)nc(NCC(=O)O)n1 |  | > 100 µM |  | > 100 |  | > 100 µM |  | > 100 µM |  | > 100 µM |  | > 100 |  | > 100 µM |  | > 100 µM |  | > 100 |  | > 100
12 | CNC(=S)NC1CCCCC1NC(=S)NC (stereo not drawn) |  | > 100 µM |  | > 100 |  | > 100 µM |  | > 100 µM |  | > 100 µM |  | > 100 |  | > 100 µM |  | > 100 µM |  | > 100 |  | > 100
13 | COC(=O)C(C(=O)C(=O)Nc1cccc(OC)c1)c1cnc2ccccc2n1 (stereo not drawn) |  | > 100 µM |  | > 100 |  | > 100 µM |  | > 100 µM |  | > 100 µM |  | > 100 |  | > 100 µM |  | > 100 µM |  | > 100 |  | > 100
14 | O=C(Nc1nc2ncn(CCI)c2c(=O)[nH]1)c1ccccc1 |  | > 100 µM |  | > 100 |  | > 100 µM |  | > 100 µM |  | > 100 µM |  | > 100 |  | > 100 µM |  | > 100 µM |  | > 100 |  | > 100
15 | O=S(O)CCCCSSCC(O)C(O)CSSCCCCS(=O)O (stereo not drawn) |  | 36.4 µM and > 100 µM |  | > 100 |  | 25.8 µM and 35.9 µM |  | > 100 µM and 93.1 µM |  | 53.9 µM and > 100 µM |  | > 100 |  | 24.2 µM and 30.6 µM |  | 46.4 µM and 46.1 µM |  | > 100 |  | > 100
16 | CCC[CH2][Sn]([CH2]CCC)([CH2]CCC)[O]C(=O)CC | 0.135 | 0.27 µM | 0.135 | 0.281 | 0.151 | 0.349 µM | 0.121 | 0.335 µM | 0.163 | 0.538 µM | 0.169 | 0.335 | 0.167 | 0.343 µM | 0.169 | 0.506 µM | 0.172 | 0.342 | 0.158 | 0.365
17 | CS(=O)(=O)N/N=C/CN1C(=O)c2ccccc2C1=O |  | > 100 µM |  | > 100 |  | > 100 µM |  | > 100 µM |  | > 100 µM |  | > 100 |  | > 100 µM |  | > 100 µM |  | > 100 |  | > 100
